In the test the target is T1, enzyme elastase, e.g., human leukocyte elastase (HLE) and porcine pancreatic elastase (PPE) (Homo sapiens, UniProt P08246).
T1 sequence (P08246 30-247): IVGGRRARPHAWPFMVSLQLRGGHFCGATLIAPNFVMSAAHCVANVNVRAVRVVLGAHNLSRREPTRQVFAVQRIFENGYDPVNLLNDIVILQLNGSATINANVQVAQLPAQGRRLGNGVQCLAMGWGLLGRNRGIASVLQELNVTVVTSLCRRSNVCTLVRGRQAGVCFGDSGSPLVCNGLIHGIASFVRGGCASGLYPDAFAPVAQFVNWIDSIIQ
Put plainly: Elastase enzyme inhibitory studies (Ki of peptidyl carbamates). It counts as biochemical. How it is done: These studies are conducted to show the activities of some of the compounds of this invention as inhibitors of various forms of the enzyme elastase.
All enzyme assays are performed spectrophotometrically at 25 C using CARY 219 or 2200 Vanan Spectrometers. The activity of PPE is measured using 5-Boc-L-alinlne p-mtrophenyl ester (Boc-Ala-ONP), as the substrate and monitoring the absorbance at 347.5 nm (p-nitrophenol). The activity of HLE is measured using methoxy succinyl-L-analyl-L-alanyl L-prolyl-L-valine pnitroanilide (MeO-Suc-Ala-Ala-Pro-Val-NA), as the substrate and following the absorbance at 410 nm (pnitroaniline). Active inhibitors are tested against other serine dependent proteolytic enzymes such as tryps in and chymotryps in using their respective substrates. N-benzoyl-L-arginine ethyl ester, N-benzoyl-L-tyrosine ethyl ester and monitonng the absorbance at 253 and 256 respectively. […]

On to `COC(=O)CCC(=O)NC(C)C(=O)NC(CCCCNC(=O)OCc1ccccc1)C(=O)N1CCCC1C(=O)CN(C(=O)Sc1nnnn1-c1ccccc1)C(C)C` (stereo not drawn) [PC5, S-(1-phenyl-5-tetrazoyl)-N-[methoxysuccinyl-alanyl-(N∈-Carbobenzoxyl)lysylprolylmethyl]-N-isopropyl-thio carbamate], for which the “Ki (inhibitor dissociation constant)” value was 20 nM.

For the compound `COC(=O)CCC(=O)NC(CCCNC(=O)OCc1ccccc1)C(=O)NC(C)C(=O)N1CCCC1C(=O)CN(C(=O)Sc1nnnn1-c1ccccc1)C(C)C` (stereo not drawn) [PC6, S-(1-phenyl-5-tetrazoyl)-N-[methoxysuccinyl-(N -carbobenzoyl)ornithylalanyl(prolylmethyl)-N-isopropylthio carbamate], the “Ki (inhibitor dissociation constant)” value amounted to 3 nM.
